Our source for the relative viability values is the supplement of paper PMC10307832.

Common to all, as to experiment: relative viability (nuclei count vs DMSO), 5 days (fraction); higher = more cells survive
Compound in assay [1]: Cc1ccc(C(=O)Nc2cccc(C(F)(F)F)c2)cc1Nc1cncc(C(N)=O)c1 [ALW-II-49-7] + C[C@@H](Oc1cc(-c2cnn(C3CCNCC3)c2)cnc1N)c1c(Cl)ccc(F)c1Cl [Crizotinib] (partner 1 µM)
In short, it runs like this: (§1)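 Values are medians from duplicate plates. Each reflects relative viability, defined as the nuclei count of treated wells over that of vehicle wells. Lung cancer cell lines in 1536-well plates were pin-tool dosed one day after seeding with one drug alone or with a fixed anchor-drug dose plus five library-drug doses (not always all listed) in √10 steps, then fixed, stained and imaged at 4× after 5 days.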

Compound in assay [2]: C1CC1C(=O)NC2=NNC3=C2C=CC(=C3)C4=CC(=CC=C4)C(=O)NC5CC5 [XMD13-2] + CCNC(=O)c1noc(-c2cc(C(C)C)c(O)cc2O)c1-c1ccc(CN2CCOCC2)cc1 [Luminespib] (partner 0.01 µM)
A digest of the protocol:
as §1

Compound in assay [3]: Cc1ccc(C(=O)Nc2cccc(C(F)(F)F)c2)cc1Nc1cncc(C(N)=O)c1 [ALW-II-49-7] + COc1cc2c(Oc3ccc(NC(=O)C4(C(=O)Nc5ccc(F)cc5)CC4)cc3F)ccnc2cc1OCCCN1CCOCC1 [Foretinib] (partner 0.25 µM)
In short, it runs like this:
as §1

COR-L23: the relative viability in assay [1] (first compound 0.08 µM) worked out at 0.688; in assay [1] (first compound 0.253 µM) it was 0.601; in assay [1] (first compound 0.8 µM) it was 0.626; in assay [1] (first compound 2.53 µM) it was 0.614; in assay [1] (first compound 8 µM), 0.793; in assay [2] (first compound 0.05 µM), 0.883. In addition, the relative viability in assay [2] (first compound 0.1581 µM) turned out to be 0.581; in assay [2] (first compound 0.5 µM), 0.592; in assay [2] (first compound 1.581 µM), 0.769; in assay [2] (first compound 5 µM) it was 0.607; in assay [3] (first compound 0.08 µM) it was 1.1; in assay [3] (first compound 0.253 µM), 1.09. The relative viability in assay [3] (first compound 0.8 µM) amounted to 0.903; in assay [3] (first compound 2.53 µM), 0.913; in assay [3] (first compound 8 µM), 0.945.

On to COR-L 105, for which the relative viability in assay [1] (first compound 0.08 µM) is 0.737; in assay [1] (first compound 0.253 µM), 0.805; in assay [1] (first compound 0.8 µM), 0.864; in assay [1] (first compound 2.53 µM), 0.653; in assay [1] (first compound 8 µM) it was 0.72; in assay [2] (first compound 0.05 µM), 0.867. The relative viability stood at 0.852 in assay [2] (first compound 0.1581 µM); 0.704 in assay [2] (first compound 0.5 µM); 0.749 in assay [2] (first compound 1.581 µM); 0.789 in assay [2] (first compound 5 µM); 1.02 in assay [3] (first compound 0.08 µM); 0.949 in assay [3] (first compound 0.253 µM). For the same cell line, the figures for the relative viability in assay [3] (first compound 0.8 µM), in assay [3] (first compound 2.53 µM) and in assay [3] (first compound 8 µM) were 0.992, 0.99 and 1.23, respectively.

On to Calu-6, for which the relative viability worked out at 0.736 in assay [1] (first compound 0.08 µM); 0.737 in assay [1] (first compound 0.253 µM); 0.718 in assay [1] (first compound 0.8 µM); 0.904 in assay [1] (first compound 2.53 µM); 0.554 in assay [1] (first compound 8 µM); 0.914 in assay [3] (first compound 0.08 µM). For the same cell line, the relative viability was found to be 0.832 in assay [3] (first compound 0.253 µM), 0.912 in assay [3] (first compound 0.8 µM), 0.832 in assay [3] (first compound 2.53 µM) and 0.805 in assay [3] (first compound 8 µM).

With ChaGo-K-1, the relative viability was found to be 1.13 in assay [1] (first compound 0.08 µM); 1.12 in assay [1] (first compound 0.253 µM); 1.08 in assay [1] (first compound 0.8 µM); 0.972 in assay [1] (first compound 2.53 µM); 1.04 in assay [1] (first compound 8 µM); 0.585 in assay [2] (first compound 0.05 µM). Moreover, the relative viability in assay [2] (first compound 0.1581 µM) was determined as 0.582; in assay [2] (first compound 0.5 µM) it was 0.603; in assay [2] (first compound 1.581 µM), 0.617; in assay [2] (first compound 5 µM), 0.476; in assay [3] (first compound 0.08 µM), 0.971; in assay [3] (first compound 0.253 µM), 0.968. In addition, the values for the relative viability in assay [3] (first compound 0.8 µM), in assay [3] (first compound 2.53 µM) and in assay [3] (first compound 8 µM) were 0.931, 0.905 and 0.91, respectively.

For EBC-1, the relative viability in assay [1] (first compound 0.08 µM) came out at 0.176; in assay [1] (first compound 0.253 µM), 0.177; in assay [1] (first compound 0.8 µM), 0.203; in assay [1] (first compound 2.53 µM), 0.171; in assay [1] (first compound 8 µM), 0.182; in assay [3] (first compound 0.08 µM), 0.0976. Besides, the relative viability in assay [3] (first compound 0.253 µM) worked out at 0.11; in assay [3] (first compound 0.8 µM) it was 0.098; in assay [3] (first compound 2.53 µM) it was 0.0988; in assay [3] (first compound 8 µM), 0.114.

Regarding EKVX, the relative viability in assay [1] (first compound 0.08 µM) came to 0.989; in assay [1] (first compound 0.253 µM) it was 0.79; in assay [1] (first compound 0.8 µM), 0.969; in assay [1] (first compound 2.53 µM), 0.718; in assay [1] (first compound 8 µM), 0.818; in assay [2] (first compound 0.05 µM), 0.978. The relative viability in assay [2] (first compound 0.1581 µM) stood at 0.887; in assay [2] (first compound 0.5 µM), 0.982; in assay [2] (first compound 1.581 µM), 0.906; in assay [2] (first compound 5 µM), 0.738; in assay [3] (first compound 0.08 µM) it was 0.781; in assay [3] (first compound 0.253 µM), 0.753. For the same cell line, the relative viability in assay [3] (first compound 0.8 µM) came to 0.898; in assay [3] (first compound 2.53 µM), 1.05; in assay [3] (first compound 8 µM), 0.746.
